Test results reported in patent US8114865B2, “Indazole derivatives as kinase inhibitors for the treatment of cancer” (Nerviano Medical Sciences S.R.L., priority 2006, dated 2012).

These compounds were tested on IGF1-induced S6 phosphorylation (assay: Growth factor induced S6 ribosomal protein phosphorylation in primary human fibroblasts). Conditions: normal human dermal fibroblasts (NHDF), 10 nM IGF-1.
Type: cell-based
Protocol: Phosphorylation of S6 ribosomal protein in response to growth factor stimulation of normal human dermal fibroblasts (NHDF) was used to assess compound potency in inhibiting IGF-1 induced signal transduction in cells, and selectivity towards EGF and PDGF stimulus. NHDF cells obtained from PromoCell (Heidelberg, Germany), were maintained at 37° C. in a humidified atmosphere with 5% CO2 in complete Fibroblast Growth Medium (PromoCell). For assay, NHDF were seeded in 384-well tissue culture plates (clear- and flat-bottomed black plates; Matrix Technologies Inc., Hudson, N.H., USA) at a density of 5000 cells/well in serum-free medium containing 0.1% bovine serum albumin (BSA) and incubated for 5 days. Starved cells were treated for 1 hour with desired doses of compounds and then stimulated for a further 2 hours with either 10 nM IGF-1 (Invitrogen Corp., CA, USA), 10 nM EGF (Gibco BRL, USA) or 1 nM PDGF-B/B (Roche Diagnostics GmbH, Germany). Cells were then fixed in PBS/3.7% paraformaldehyde for 20 minutes at room temperature, washed ×2 with PBS, and permeabilized with PBS/0.3% Triton X-100 for 15 minutes. Wells were then saturated with PBS/1% non-fat dry milk (Bio-Rad Laboratories, Hercules, Calif., USA) for 1 hour, and then probed for 1 hour at 37° C. with anti-phospho-S6 (Ser 235/236) antibody (Cell Signaling Technology, Beverly, Mass., USA, cat. #2211) at 1/200 dilution in PBS/1% milk/0.3% Tween 20. Wells were then washed twice with PBS, and incubated for 1 hour at 37° C. with PBS/1% milk/0.3% Tween 20+1 microg/mL DAPI (4,6-diamidino-2-phenylindole)+ 1/500 Goat anti-rabbit Cy5™-conjugated secondary antibody (Amersham Biosciences, Little Chalfont, Buckinghamshire, UK). […] Fluorescence images in the DAPI and Cy5™ channels were automatically acquired, stored and analysed using a Cellomics ArrayScan™ IV instrument (Cellomics, Pittsburgh, USA); the Cellomics Cytotoxicity Algorithm was used to quantify cytoplasmic fluorescence associated with phospho-S6 (Cy5™ signal parameter: “Mean Lyso Mass-pH”) for each cell in 10 fields/well, and eventually expressed as a mean population value. […]

Row | Compound | IC50 [nM]
1 | CN1CCN(c2ccc(C(=O)Nc3n[nH]c4ccc(S(=O)(=O)c5ccccc5)cc34)cc2)CC1 [Compound 1, N-(5-Benzenesulfonyl-1H-indazol-3-yl)-4-(4-methyl-piperazin-1-yl)-benzamide] | > 10000
2 | CN1CCN(c2ccc(C(=O)Nc3n[nH]c4ccc(S(=O)(=O)c5ccccc5)cc34)c(NC(=O)c3ccc[nH]3)c2)CC1 [Compound 33, 1H-pyrrole-2-carboxylic acid [2-(5-benzenesulfonyl-1H-indazol-3-ylcarbamoyl)-5-(4-methyl-piperazin-1-yl)-phenyl]amide] | 270
3 | CN1CCN(c2ccc(C(=O)Nc3n[nH]c4ccc(S(=O)(=O)c5ccccc5)cc34)c(NC(=O)[C@@H]3CCCO3)c2)CC1 [Compound 36, (S)-Tetrahydro-furan-2-carboxylic acid [2-(5-benzenesulfonyl-1H-indazol-3-ylcarbamoyl)-5-(4-methyl-piperazin-1-yl)-phenyl]-amide] | 1200
